The record followed here is PubChem BioAssay (NCI).

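All cell lines were grown in 96-well plates and treated with compound for 48 hours. Here, GI50 denotes the concentration required for 50% inhibition of growth. TGI denotes the concentration required for complete inhibition of growth.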

Holding throughout (test): inhibition of tumour cell growth, NCI panel, 48 h
The subject of assay [1] is ACHN renal.
The subject of assay [2] is DLD-1 colon.
Assay [3] relates to HOP-92 NSCLC.
Assay [4] concerns OVCAR-4 ovarian.
The subject of assay [5] is OVCAR-5 ovarian.
Assay [6] concerns SK-MEL-2 melanoma.
Assay [7] relates to SNB-75 CNS.
For assay [8], the system named is SNB-78 CNS.
For assay [9], the system named is SW-620 colon.
Assay [10] has as its system M19-MEL melanoma.

`Oc1ccc(Br)cc1C=Nc1ccc(N=Cc2cc(Br)ccc2O)cc1`: the TGI in assay [1], in assay [2], in [3], in [4], in [5] and in [6] was over 100 µM throughout. Further, the TGI in [7], in assay [8] and in [9] was over 100 µM throughout.

Consider `COC(=O)/C(=C\c1ccc(N(CCC#N)CCC#N)cc1)NC(=O)c1cc([N+](=O)[O-])ccc1Cl`, for which the TGI in [1], in assay [2], in [10], in [4], in assay [5] and in assay [6] was over 100 µM each time. The TGI in assay [7], in [8] and in assay [9] was over 100 µM throughout.

For `O=c1c2ccccc2nc(-c2ccccc2)n1NC(=S)Nc1ccccc1`, the TGI in [1], in assay [2], in assay [3], in [10], in assay [4] and in [5] was over 100 µM each time. For the same compound, the TGI in [6], in [7] and in assay [9] was over 100 µM each time.

As for `OCCNCCOc1ccc(/C(=C(/Cl)c2ccccc2)c2ccccc2)cc1`, the TGI amounted to 27.4 µM in assay [2]; 23.5 µM in [10]; 31.5 µM in assay [4]; 28.3 µM in assay [5]; 26.4 µM in assay [6]; 8.46 µM in assay [7]. The TGI in [8] is 23.6 µM; in [9] it was 17.3 µM.

Take `CCOc1ccccc1NC(=O)C(=O)Cc1nc2ccccc2s1`: the TGI in [1], in assay [2], in [3], in assay [10], in assay [4] and in assay [6] was over 100 µM in each case. Also, the TGI in [7], in assay [8] and in assay [9] was over 100 µM in each case.

For the compound `COC1=C(Br)C(=O)c2nc(C)ccc2C1=O`, the TGI in assay [1] stood at 24 µM; in assay [2], 22.2 µM; in assay [3], 15.5 µM; in assay [10] it was 27.8 µM; in assay [4], 26.3 µM; in assay [5], 34.7 µM. For the same compound, the TGI in [6] came out at 30.1 µM; in [7] it was 33.8 µM; in [8], 41.6 µM; in [9] it was 21.7 µM.

As to `[F][Sn]([F])([c]1ccccc1)[c]1ccccc1`, the GI50 in assay [1] is 1.6 µM; in assay [2], 1.88 µM; in assay [3] it was 1.48 µM; in assay [10] it was 2.35 µM; in assay [4], 1.68 µM; in assay [5] it was 1.51 µM. For the same compound, the GI50 in [6] was 1.91 µM; in assay [7] it was 1.7 µM; in assay [8], 3.18 µM; in assay [9] it was 1.36 µM. The TGI in [1] came out at 2.97 µM; in assay [2] it was 3.47 µM; in assay [3], 3.13 µM; in assay [10], 6.2 µM; in [4] it was 3.39 µM; in assay [5], 3.69 µM. Besides, the TGI in assay [6] amounted to 3.43 µM; in assay [7], 4.61 µM; in assay [8], 16 µM; in assay [9] it was 3.02 µM.

Consider `CC1=C(C(=O)Nc2ccccc2)C(c2ccc(C3C(C(=O)Nc4ccccc4)=C(C)NC(C)=C3C(=O)Nc3ccccc3)cc2)C(C(=O)Nc2ccccc2)=C(C)N1`, for which the TGI in assay [1] was found to be 4.2 µM; in assay [2], 8.15 µM; in assay [3] it was 9.78 µM; in assay [10], 22 µM; in [4], 16.1 µM; in assay [5], 17.6 µM. Moreover, the TGI worked out at 5.06 µM in [6], 23.7 µM in [7] and 5.56 µM in [9].

Consider `O=S1(=O)OCCOS(=O)(=O)C1Cl`, for which the TGI in [2], in [3], in assay [10], in [4], in assay [6] and in assay [7] was over 100 µM each time. Besides, the TGI in assay [8] and in assay [9] was over 100 µM each time.

Take `CC1CN1c1c(C(=O)/C=C/c2ccc(Cl)cc2)c(-c2ccccc2)nn(C)c1=O` (stereo unspecified): the TGI in assay [1] was 5.27 µM; in [2], 3.45 µM; in [3], over 10 µM; in assay [10] it was over 10 µM; in assay [4] it was 7.52 µM; in assay [5], over 10 µM. The TGI in assay [6] was 5.8 µM; in [7] it was 8.28 µM; in assay [8] it was 5.17 µM; in assay [9], 6.81 µM.

Consider `CC(=O)OC1C2CCC1C1C2C2(Cl)C(Cl)=C(Cl)C1(Cl)C2(Cl)Cl` (stereo unspecified), for which the TGI in assay [1] was determined as 25.9 µM; in assay [2], 33.3 µM; in assay [3], 23.3 µM; in [10], 27.7 µM; in [4], 59.8 µM; in [5], 23.1 µM. Besides, the TGI in assay [6] worked out at 22.2 µM; in assay [7] it was 29.8 µM; in assay [8], 34.8 µM; in [9] it was 28.4 µM.

Take `CCN(CC)CCNC(=O)c1ccc(C)c(OCc2ccccc2)c1[N+](=O)[O-]`: the TGI in assay [1] is over 89.6 µM; in assay [2], over 100 µM; in assay [3], 83.2 µM; in [10], 32.7 µM; in assay [4] it was over 100 µM; in [5], 81.3 µM. In addition, the TGI was 41 µM in [6], 67.9 µM in [7], over 100 µM in [8] and 44 µM in assay [9].

In the case of `CC(C)(C)OC(=O)N1N=NC2C1C1CC(OCc3ccccc3)(OCc3ccccc3)C2O1` (stereo unspecified), the TGI in assay [1], in assay [2], in assay [3], in [10], in [4] and in assay [5] was over 100 µM throughout. Besides, the TGI in [6] is over 100 µM; in assay [7], over 100 µM; in assay [8] it was over 100 µM; in [9], 47.6 µM.
